According to article PMC3071440 (Journal of medicinal chemistry, 2010):

Experiments:
[1] = rat, oral 10 mg/kg; cited from earlier work
[2] = In vivo PK in rats following oral administration; settings: rat, oral 10 mg/kg, harvested at or near Tmax

Brain level [2] [µM]	SMILES	brain levels following oral dosing [1]
	Cc1c(OCc2cccc(-c3ccc(C(=O)O)cc3)c2)cc2c(c1C)C(=O)C(C1CCCC1)C2 (centres unmarked) [Compound 1, 3′-((2-cyclopentyl-6,7-dimethyl-1-oxo-2,3-dihydro-1H-inden-5-yloxy)methyl)biphenyl-4-carboxylic acid]	below the limit of quantitation
3.8 ± 1.2	O=C(O)c1cc(-c2cccc(COc3ccc4c(c3)CN(C3CCCC3)C4=O)c2)ccc1Cl [Compound 8a, 4-Chloro-3′-((2-cyclopentyl-1-oxoisoindolin-5-yloxy)-methyl)biphenyl-3-carboxylic acid]	
